Read-outs that look alike come from different tables or passages of the source. Starred links: 1 amine or outer side, 2 acyl side, 3 side chain; linkers in the order of their positions; H or OH if unused. Positions of bridges follow the written chain, without caps; N, C: chain ends. Non-standard residues stand in square brackets, D forms with d. Residues, ends and D or L forms follow the SMILES beside them. X2 = O=C(CC[C@H](Cc1ccc(O)cc1)N[*:1])[*:2]; X1 = O=C(C(O)CCN[*:1])[*:2]; β3hS = N[C@@H](CO)CC(=O)O; Dab = NCC[C@H](N)C(=O)O
How the values were obtained:
in vitro [1] = format: cell-based
Experimental: (§1) The cytotoxicity of the depsipeptides to HELA cells (Acc57) and COS-7 cells (CRL-1651) was determined using the MTT reduction assay (T. Mossman, J. Immunol. Meth. 1983, 65, 55-63; M. V. Berridge, A. S. Tan, Arch. Biochem. Biophys. 1993, 303, 474-482). Briefly, the method was as follows: 7000 HELA cells/well and 4500 COS-7 cells/well were seeded and grown in 96-well microtiter plates for 24 h at 37° C. at 5% CO2. Thereafter, time zero (Tz) was determined by MTT reduction (see below). The supernatant of the remaining wells was discarded, and fresh medium and compounds in serial dilutions (12.5, 25 and 50 μM, triplicates) were pipetted into the wells. After incubation of the cells for 48 h at 37° C. at 5% CO2 the supernatant was discarded again and 100 μL MTT reagent (0.5 mg/mL in RPMI1640 and DMEM, respectively)/well was added. Following incubation at 37° C. for 2 h the media were aspirated and the cells were spiked (100 μL isopropanol/well). The absorbance of the solubilized formazan was measured at 595 nm (OD595peptide). For each concentration averages were calculated from triplicates. The percentage of growth was calculated as follows: (OD595peptide-OD595Tz-OD595Empty well)/(OD595Tz-OD595Empty well)×100%. The GI50 (Growth Inhibition) concentrations were calculated for each depsipeptide by using a trend line function for the concentrations (50, 25, 12.5 and 0 μM), the corresponding percentages and the value 50, (=TREND (C50:C0, %50:%0, 50).

[2] = Plasma stability in mouse plasma
Experimental: (§2) The stability of the peptides in human and mouse plasma was determined by applying the following method: 315 μL/deep well of freshly thawed human plasma (Basler Blutspende-dienst) and mouse plasma (Harlan Sera-Lab, UK), respectively, were spiked with 35 μL/well of compound in PBS (100 μM, triplicate) and incubated at 37° C. […] Following shaking for 2 min the occurred suspensions were filtrated by vacuum and finally, 100 μL of each filtrate were transferred to a propylene microtiter plate, and analyzed by LC/MS as follows: Column: Waters, XBridge C18, mobile phases: (A) water+0.1% formic acid and (B) acetonitrile/water, 95/5 (v/v)+0.1% formic acid, gradient: 5%-100% (B) in 2 minutes, electrospray ionization, MRM detection (triple quadrupole). The peak areas were determined and triplicate values are averaged. The stability is expressed in percent of the initial value at t=0. (tx/to×100). By using the TREND function of EXCEL (Microsoft Office 2003) T1/2 were determined.

human CXCR4 = molecular target: T1, human CXCR4 (Homo sapiens, UniProt P61073); assay: Ca2+-assay: CXCR4-antagonizing activity (SDF-1 induced calcium mobilization); format: cell-based; settings: mouse pre-B cell line 300-19 stably transfected with human CXCR4, read-out: IC50% [nM] ± SD, CXCR4 receptor
T1 construct: expressed in transfected cells; host or cells: mouse pre-B cell line 300-19
Description: 2.3. Ca^2+-Assay: CXCR4-Antagonizing Activity of the Peptides
Increases in intracellular calcium were monitored using a Flexstation 384 (Molecular Devices, Sunnyvale, Calif.) to assay the depsipeptides for CXCR4 antagonism in a mouse pre-B cell line 300-19 stably transfected with human CXCR4 (E. Oberlin, A. Amara, F. Bachelerie, C. Bessia, J.-L. Virelizier, F. Arenzana-Seisdedos, O. Schwartz, J.-M. Heard, I. Clark-Lewis, D. F. Legler, M. Loetscher, M. Baggiolini, B. Moser, Nature 1996, 382, 833-835; M. Loetscher, T. Geiser, T. O'Reilly, R. Zwalen, M. Baggiolini, B. Moser, J. Biol. Chem. 1994, 269, 232-237; M. D'Apuuo, A. Rolink, M. Loetscher, J. A. Hoxie, I. Clark-Lewis, F. Melchors, M. Baggiolini, B. Moser, Eur. J. Immunol. 1997, 27, 1788-1793). The cells were batch loaded with the Calcium 4 Assay kit (Molecular Devices) in assay buffer (Hanks Balanced salt solution [HBSS], 20 mM HEPES, pH 7.4, 0.1% BSA) for 1 h at room temperature and labeled cells were dispensed into black 96 well assays plates (Costar No. 3603). Calcium mobilization induced by stromal-derived factor-1 (SDF-1) was measured in the Flexstation 384 (excitation: 485 nm; emission: 525 nm) for 90 seconds. Antagonist activity of peptides was determined by spiking the cells with compounds prior to SDF-1 addition. Dose response curves (compound concentration versus % maximum response for SDF-1) were determined for each antagonist and IC50 values were calculated by fitting the data to a four parameter logistic equation using SoftmaxPro 4.8 (Molecular Devices).

[3] = test system: human red blood cells (hRBC); settings: red cells of human, 1 h
Experimental: The peptides were tested for their hemolytic activity against human red blood cells (hRBC). Fresh hRBC were washed three times with phosphate buffered saline (PBS) and centrifuged for 10 min at 2000×g. Compounds (100 μM) were incubated with 20% hRBC (v/v) for 1 h at 37° C. The final erythrocyte concentration was approximately 0.9×10^9 cells/mL. A value of 0% and 100% cell lyses, respectively, was determined by incubation of hRBC in the presence of PBS alone and 0.1% Triton X-100 in H2O, respectively. The samples were centrifuged, the supernatants were 20-fold diluted in PBS buffer and the optical densities (OD) were measured at 540 nm.
Percent hemolysis was calculated as follows: (OD540peptide/OD540H2O)×100%.

[4] = Plasma stability in human plasma
Experimental: as §2

in vitro [5] = format: cell-based; remark: listed apart in the source
Experimental: as §1

[6] = mouse plasma, 37° C., sampling up to 240 min
[7] = human plasma, 37° C., sampling up to 240 min

T1 sequence (P61073 whole entry): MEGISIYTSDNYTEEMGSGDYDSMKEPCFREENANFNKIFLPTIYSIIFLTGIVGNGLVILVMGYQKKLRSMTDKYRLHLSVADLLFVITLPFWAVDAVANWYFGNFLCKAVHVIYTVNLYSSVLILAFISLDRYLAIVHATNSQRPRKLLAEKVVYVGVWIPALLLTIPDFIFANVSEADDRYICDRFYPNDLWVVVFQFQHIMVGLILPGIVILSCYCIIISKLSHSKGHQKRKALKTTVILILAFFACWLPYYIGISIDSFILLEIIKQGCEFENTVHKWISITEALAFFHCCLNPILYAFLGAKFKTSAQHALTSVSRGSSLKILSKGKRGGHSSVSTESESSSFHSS

| SMILES | GI50 (in vitro [1]; African green monkey) [µM] | Plasmastability mouse pl. T1/2 [2, 6] [h] | IC50 (human CXCR4) [nM] | Hemolysis at 100 μM [3] [%] | Plasmastability human pl. T1/2 [4, 7] [h] | GI50 (in vitro [5]; human) [µM] | Plasmastability mouse pl. T1/2 ([2]; mouse, plasma, 10 μM) [h] | Plasmastability human pl. T1/2 ([4]; human, plasma, 10 μM) [h] | GI50 (in vitro [1]) [µM] | Plasmastability mouse pl. T1/2 ([2]; mouse, plasma) [h] | Plasmastability human pl. T1/2 ([4]; human, plasma) [h] | GI50 (in vitro [5]) [µM] |
| --- | --- | --- | --- | --- | --- | --- | --- | --- | --- | --- | --- | --- |
| C[C@@H]1NC(=O)[C@H](Cc2c[nH]cn2)NC(=O)[C@H](Cc2ccc(O)cc2)NC(=O)[C@@H]2CCCN2C(=O)[C@@H](Cc2cn(Cc3ccccc3)cn2)NC(=O)[C@H](CCCCN)NC(=O)[C@H](CCC(N)=O)NC(=O)[C@H](Cc2ccc(O)cc2)NC(=O)[C@@H]2CSSC[C@H](NC1=O)C(=O)N[C@@H](CO)C(=O)N[C@@H](C)C(=O)N1CCC[C@@H]1C(=O)N[C@@H](CCN)C(=O)N[C@@H](CCCNC(=N)N)C(=O)N[C@@H](Cc1ccc(O)cc1)C(=O)N2 [compound 5] | > 50 | 4 | 0.92 ± 0.2 | 1 | 4 | > 50 |  |  |  |  |  |  |
| C[C@@H]1NC(=O)[C@H](Cc2c[nH]cn2)NC(=O)CC[C@H](Cc2ccc(O)cc2)NC(=O)[C@@H]2CCCN2C(=O)[C@H]2CCCN2C(=O)[C@H](CCCCN)NC(=O)[C@H](CCC(N)=O)NC(=O)[C@H](Cc2ccc(O)cc2)NC(=O)[C@@H]2CSSC[C@H](NC1=O)C(=O)N[C@@H](CO)C(=O)N[C@@H](C)C(=O)N1CCC[C@@H]1C(=O)N[C@@H](CCN)C(=O)N[C@@H](CCCNC(=N)N)C(=O)N[C@@H](Cc1ccc(O)cc1)C(=O)N2 [compound 18] (cyclo([X2]HACSA[dP][Dab]RYCYQK[dP]P); disulfide 4-11) | > 50 |  | 0.39 ± 0.5 | 1.4 |  | > 50 | 4 | 4 |  |  |  |  |
| C[C@@H]1NC(=O)[C@H](Cc2c[nH]cn2)NC(=O)[C@H](Cc2ccc(O)cc2)NC(=O)[C@@H]2CCCN2C(=O)[C@H]2CCCN2C(=O)[C@H](CCCCN)NC(=O)[C@H](CCC(N)=O)NC(=O)[C@H](Cc2ccc(O)cc2)NC(=O)[C@@H]2CSSC[C@H](NC1=O)C(=O)NCCC(O)C(=O)N[C@@H](C)C(=O)N1CCC[C@@H]1C(=O)N[C@@H](CCN)C(=O)N[C@@H](CCCNC(=N)N)C(=O)N[C@@H](Cc1ccc(O)cc1)C(=O)N2 (stereo partly drawn) [compound 19] (cyclo(YHAC[X1]A[dP][Dab]RYCYQK[dP]P); disulfide 4-11) |  |  | 1.1 ± 0.6 | 1.8 |  |  |  |  | > 50 | 4 | 4 | > 50 |
| C[C@@H]1NC(=O)[C@H](Cc2c[nH]cn2)NC(=O)[C@H](Cc2ccc(O)cc2)NC(=O)[C@@H]2CCCN2C(=O)[C@@H](CC2CCCCC2)NC(=O)[C@H](CCCCN)NC(=O)[C@H](CCC(N)=O)NC(=O)[C@H](Cc2ccc(O)cc2)NC(=O)[C@@H]2CSSC[C@H](NC1=O)C(=O)N[C@@H](CO)C(=O)N[C@@H](C)C(=O)N1CCC[C@@H]1C(=O)N[C@@H](CCN)C(=O)N[C@@H](CCCNC(=N)N)C(=O)N[C@@H](Cc1ccc(O)cc1)C(=O)N2 [Ex. 1] | > 50 | 4 | 1.3 ± 0.4 | 0 | 4 | > 50 |  |  |  |  |  |  |
| C[C@@H]1NC(=O)[C@H](Cc2c[nH]cn2)NC(=O)[C@H](Cc2ccc(O)cc2)NC(=O)[C@@H]2CCCN2C(=O)[C@H]2CCCN2C(=O)[C@H](CCCCN)NC(=O)[C@H](CCC(N)=O)NC(=O)[C@H](Cc2ccc(O)cc2)NC(=O)[C@@H]2CSSC[C@H](NC1=O)C(=O)N[C@@H](CO)CC(=O)N[C@@H](C)C(=O)N1CCC[C@@H]1C(=O)N[C@@H](CCN)C(=O)N[C@@H](CCCNC(=N)N)C(=O)N[C@@H](Cc1ccc(O)cc1)C(=O)N2 [compound 20] (cyclo(YHAC[β3hS]A[dP][Dab]RYCYQK[dP]P); disulfide 4-11) | > 50 |  | 2.66 ± 2.2 | 0.6 |  | > 50 | 4 | 4 |  |  |  |  |
